The source of these data is patent US20250171438A1 (Agios Pharmaceuticals, Inc., priority 2022, published 2025).

The experiment concerns the target T1, human PAH with the R408W mutation (Homo sapiens, UniProt P00439, R408W).
T1 construct: expressed in transfected cells
T1 sequence (P00439 1-452 R408W): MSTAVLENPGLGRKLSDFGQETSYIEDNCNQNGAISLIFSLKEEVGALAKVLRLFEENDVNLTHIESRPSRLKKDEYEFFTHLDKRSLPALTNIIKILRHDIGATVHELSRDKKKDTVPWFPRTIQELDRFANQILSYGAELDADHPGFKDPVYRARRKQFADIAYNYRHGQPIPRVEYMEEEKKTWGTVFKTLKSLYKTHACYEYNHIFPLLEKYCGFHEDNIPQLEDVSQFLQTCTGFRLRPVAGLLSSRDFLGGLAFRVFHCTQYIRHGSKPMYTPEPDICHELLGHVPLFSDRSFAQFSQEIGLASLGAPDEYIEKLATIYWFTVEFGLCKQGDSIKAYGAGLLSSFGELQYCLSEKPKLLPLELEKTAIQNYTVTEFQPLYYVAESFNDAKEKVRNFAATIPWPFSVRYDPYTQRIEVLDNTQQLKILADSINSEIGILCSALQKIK
Put plainly: Cell Based Phenylalanine Flux Assay. As to conditions: A375 cells expressing human R408W PAH; 24 hrs compound incubation; 13C-Tyrosine by LC-MS; average where tested multiple times; read-out: AC50.

The structures appear in SMILES notation. Bounds are passed on as bounds.

With `Cc1nc(C2(O)CCC2)oc1C(=O)N1CCc2[nH]cnc2[C@H]1c1nc2c(F)cccc2s1` [Example 1913, (S)-(4-(4-fluorobenzo[d]thiazol-2-yl)-6,7-dihydro-1H-imidazo[4,5-c]pyridin-5(4H)-yl)(2-(1-hydroxycyclobutyl)-4-methyloxazol-5-yl)methanone], the AC50 lay in the range of 500 to 1000 nM.

In the case of `Cc1nc(C2(O)CCC2)oc1C(=O)N1CCc2[nH]cnc2[C@@H]1c1nc2c(F)cccc2s1` [Example 1914, (R)-(4-(4-fluorobenzo[d]thiazol-2-yl)-6,7-dihydro-1H-imidazo[4,5-c]pyridin-5(4H)-yl)(2-(1-hydroxycyclobutyl)-4-methyloxazol-5-yl)methanone], the AC50 fell in the range of 1000 to 5000 nM.

In the case of `COC(C)(C)c1nc(C)c(C(=O)N2CCc3[nH]cnc3[C@@H]2c2nc3c(F)cccc3s2)o1` [Example 1915, (R)-(4-(4-fluorobenzo[d]thiazol-2-yl)-6,7-dihydro-1H-imidazo[4,5-c]pyridin-5(4H)-yl)(2-(2-methoxypropan-2-yl)-4-methyloxazol-5-yl)methanone], the AC50 was greater than 5000 nM.

Take `COC(C)(C)c1nc(C)c(C(=O)N2CCc3[nH]cnc3[C@H]2c2nc3c(F)cccc3s2)o1` [Example 1916, (S)-(4-(4-fluorobenzo[d]thiazol-2-yl)-6,7-dihydro-1H-imidazo[4,5-c]pyridin-5(4H)-yl)(2-(2-methoxypropan-2-yl)-4-methyloxazol-5-yl)methanone]: the AC50 was 1000 to 5000 nM.

As to `Cn1nc(CF)cc1C(=O)N1CCc2[nH]cnc2[C@H]1c1nc2c(F)cccc2s1` [Example 1917, (S)-(4-(4-fluorobenzo[d]thiazol-2-yl)-6,7-dihydro-1H-imidazo[4,5-c]pyridin-5(4H)-yl)(3-(fluoromethyl)-1-methyl-1H-pyrazol-5-yl)methanone], the AC50 lay within 500 to 1000 nM.

As to `Cn1nc(CF)cc1C(=O)N1CCc2[nH]cnc2[C@@H]1c1nc2c(F)cccc2s1` [Example 1918, (R)-(4-(4-fluorobenzo[d]thiazol-2-yl)-6,7-dihydro-1H-imidazo[4,5-c]pyridin-5(4H)-yl)(3-(fluoromethyl)-1-methyl-1H-pyrazol-5-yl)methanone], the AC50 is 1000 to 5000 nM.

As for `Cc1c(C(=O)N2CCc3[nH]cnc3[C@H]2c2nc3c(F)cccc3s2)cnn1CC(F)(F)F` [Example 1919, (S)-(4-(4-fluorobenzo[d]thiazol-2-yl)-6,7-dihydro-1H-imidazo[4,5-c]pyridin-5(4H)-yl)(5-methyl-1-(2,2,2-trifluoroethyl)-1H-pyrazol-4-yl)methanone], the half-maximal activity concentration (AC50) is 500 to 1000 nM.

As for `Cc1c(C(=O)N2CCc3[nH]cnc3[C@@H]2c2nc3c(F)cccc3s2)cnn1CC(F)(F)F` [Example 1920, (R)-(4-(4-fluorobenzo[d]thiazol-2-yl)-6,7-dihydro-1H-imidazo[4,5-c]pyridin-5(4H)-yl)(5-methyl-1-(2,2,2-trifluoroethyl)-1H-pyrazol-4-yl)methanone], the AC50 was greater than 5000 nM.

With `O=C(c1nnc(-c2cn[nH]c2)o1)N1CCc2[nH]cnc2[C@H]1c1nc2ccccc2s1` [Example 1921], the AC50 was in the range of 500 to 1000 nM.

With `O=C(c1nnc(-c2cn[nH]c2)o1)N1CCc2[nH]cnc2[C@@H]1c1nc2ccccc2s1` [Example 1922, (R)-(5-(1H-pyrazol-4-yl)-1,3,4-oxadiazol-2-yl)(4-(benzo[d]thiazol-2-yl)-6,7-dihydro-1H-imidazo[4,5-c]pyridin-5(4H)-yl)methanone], the AC50 fell in the range of 1000 to 5000 nM.

On to `Cn1nc(Cl)cc1C(=O)N1CCc2[nH]cnc2[C@H]1c1nc2ccccc2s1` [Example 1923], for which the AC50 is less than 500 nM.

With `Cn1nc(Cl)cc1C(=O)N1CCc2[nH]cnc2[C@@H]1c1nc2ccccc2s1` [Example 1924, (R)-(4-(benzo[d]thiazol-2-yl)-6,7-dihydro-1H-imidazo[4,5-c]pyridin-5(4H)-yl)(3-chloro-1-methyl-1H-pyrazol-5-yl)methanone], the half-maximal activity concentration (AC50) lay in the range of 1000 to 5000 nM.

With `Cc1nn(C)cc1-c1nnc(C(=O)N2CCc3[nH]cnc3[C@H]2c2nc3ccccc3s2)o1` [Example 1925], the AC50 was less than 500 nM.

For `Cc1nn(C)cc1-c1nnc(C(=O)N2CCc3[nH]cnc3[C@@H]2c2nc3ccccc3s2)o1` [Example 1926, (R)-(4-(benzo[d]thiazol-2-yl)-6,7-dihydro-1H-imidazo[4,5-c]pyridin-5(4H)-yl)(5-(1,3-dimethyl-1H-pyrazol-4-yl)-1,3,4-oxadiazol-2-yl)methanone], the AC50 lay within 1000 to 5000 nM.

Regarding `Cn1cc(-c2nnc(C(=O)N3CCc4[nH]cnc4[C@H]3c3nc4c(F)cccc4s3)o2)c(C(F)(F)F)n1` [Example 1927, (S)-(4-(4-fluorobenzo[d]thiazol-2-yl)-6,7-dihydro-1H-imidazo[4,5-c]pyridin-5(4H)-yl)(5-(1-methyl-3-(trifluoromethyl)-1H-pyrazol-4-yl)-1,3,4-oxadiazol-2-yl)methanone], the AC50 was less than 500 nM.

With `Cn1cc(-c2nnc(C(=O)N3CCc4[nH]cnc4[C@@H]3c3nc4c(F)cccc4s3)o2)c(C(F)(F)F)n1` [Example 1928, (R)-(4-(4-fluorobenzo[d]thiazol-2-yl)-6,7-dihydro-1H-imidazo[4,5-c]pyridin-5(4H)-yl)(5-(1-methyl-3-(trifluoromethyl)-1H-pyrazol-4-yl)-1,3,4-oxadiazol-2-yl)methanone], the concentration at half-maximal activity (AC50) is 1000 to 5000 nM.

As for `Cc1nc([C@@H](C)O)oc1C(=O)N1CCc2[nH]cnc2[C@H]1c1nc2c(F)cccc2s1` [Example 1929, ((S)-4-(4-fluorobenzo[d]thiazol-2-yl)-6,7-dihydro-1H-imidazo[4,5-c]pyridin-5(4H)-yl)(2-((R)-1-hydroxyethyl)-4-methyloxazol-5-yl)methanone], the half-maximal activity concentration (AC50) was 500 to 1000 nM.

As to `Cc1nc([C@@H](C)O)oc1C(=O)N1CCc2[nH]cnc2[C@@H]1c1nc2c(F)cccc2s1` [Example 1930, ((R)-4-(4-fluorobenzo[d]thiazol-2-yl)-6,7-dihydro-1H-imidazo[4,5-c]pyridin-5(4H)-yl)(2-((R)-1-hydroxyethyl)-4-methyloxazol-5-yl)methanone], the AC50 lay within 1000 to 5000 nM.

Regarding `CC(C)(C)n1ncc(C(=O)N2CCc3[nH]cnc3[C@H]2c2nc3c(F)cccc3s2)c1Cl` [Example 1931], the AC50 was 500 to 1000 nM.

On to `CC(C)(C)n1ncc(C(=O)N2CCc3[nH]cnc3[C@@H]2c2nc3c(F)cccc3s2)c1Cl` [Example 1932, (R)-(1-(tert-butyl)-5-chloro-1H-pyrazol-4-yl)(4-(4-fluorobenzo[d]thiazol-2-yl)-6,7-dihydro-1H-imidazo[4,5-c]pyridin-5(4H)-yl)methanone], for which the AC50 fell in the range of 1000 to 5000 nM.

For `Cc1c(C(=O)N2CCc3[nH]cnc3[C@H]2c2nc3c(F)cccc3s2)cnn1-c1ccccn1` [Example 1933, (S)-(4-(4-fluorobenzo[d]thiazol-2-yl)-6,7-dihydro-1H-imidazo[4,5-c]pyridin-5(4H)-yl)(5-methyl-1-(pyridin-2-yl)-1H-pyrazol-4-yl)methanone], the AC50 fell in the range of 1000 to 5000 nM.

For the molecule `Cc1c(C(=O)N2CCc3[nH]cnc3[C@@H]2c2nc3c(F)cccc3s2)cnn1-c1ccccn1` [Example 1934, (R)-(4-(4-fluorobenzo[d]thiazol-2-yl)-6,7-dihydro-1H-imidazo[4,5-c]pyridin-5(4H)-yl)(5-methyl-1-(pyridin-2-yl)-1H-pyrazol-4-yl)methanone], the AC50 is greater than 5000 nM.

Take `CC(C)(O)c1nc(Cl)c(C(=O)N2CCc3[nH]cnc3[C@H]2c2nc3c(F)cccc3s2)o1` [Example 1935, (S)-(4-chloro-2-(2-hydroxypropan-2-yl)oxazol-5-yl)(4-(4-fluorobenzo[d]thiazol-2-yl)-6,7-dihydro-1H-imidazo[4,5-c]pyridin-5(4H)-yl)methanone]: the AC50 was less than 500 nM.

As for `CC(C)(O)c1nc(Cl)c(C(=O)N2CCc3[nH]cnc3[C@@H]2c2nc3c(F)cccc3s2)o1` [Example 1936, (R)-(4-chloro-2-(2-hydroxypropan-2-yl)oxazol-5-yl)(4-(4-fluorobenzo[d]thiazol-2-yl)-6,7-dihydro-1H-imidazo[4,5-c]pyridin-5(4H)-yl)methanone], the AC50 was in the range of 1000 to 5000 nM.

`Cn1nc(Cl)nc1C(=O)N1CCc2[nH]cnc2[C@H]1c1nc2ccccc2s1` [Example 1937]: the AC50 is 500 to 1000 nM.

As to `Cn1nc(Cl)nc1C(=O)N1CCc2[nH]cnc2[C@@H]1c1nc2ccccc2s1` [Example 1938, (R)-(4-(benzo[d]thiazol-2-yl)-6,7-dihydro-1H-imidazo[4,5-c]pyridin-5(4H)-yl)(3-chloro-1-methyl-1H-1,2,4-triazol-5-yl)methanone], the AC50 fell in the range of 1000 to 5000 nM.

Take `O=C(c1nnc(-c2cnn(S(=O)(=O)C3CC3)c2)o1)N1CCc2[nH]cnc2[C@H]1c1nc2ccccc2s1` [Example 1939]: the AC50 lay in the range of 500 to 1000 nM.

Take `O=C(c1nnc(-c2cnn(S(=O)(=O)C3CC3)c2)o1)N1CCc2[nH]cnc2[C@@H]1c1nc2ccccc2s1` [Example 1940, (R)-(4-(benzo[d]thiazol-2-yl)-6,7-dihydro-1H-imidazo[4,5-c]pyridin-5(4H)-yl)(5-(1-(cyclopropylsulfonyl)-1H-pyrazol-4-yl)-1,3,4-oxadiazol-2-yl)methanone]: the AC50 is 1000 to 5000 nM.

With `Cc1n[nH]cc1-c1nnc(C(=O)N2CCc3[nH]cnc3[C@H]2c2nc3ccccc3s2)o1` [Example 1941], the AC50 is less than 500 nM.

On to `Cc1n[nH]cc1-c1nnc(C(=O)N2CCc3[nH]cnc3[C@@H]2c2nc3ccccc3s2)o1` [Example 1942, (R)-(4-(benzo[d]thiazol-2-yl)-6,7-dihydro-1H-imidazo[4,5-c]pyridin-5(4H)-yl)(5-(3-methyl-1H-pyrazol-4-yl)-1,3,4-oxadiazol-2-yl)methanone], for which the AC50 fell in the range of 1000 to 5000 nM.

Broadly, the AC50 is the concentration at which the activity in the assay is half-maximal.
